Laboratory results reported in patent US8143422B2, “Benzimidazole derivatives” (Hoffmann-La Roche Inc., priority 2008, dated 2012).

Biological target: T1, FXR ligand binding domain (GST-FXR LBD fusion protein) (Homo sapiens, UniProt Q96RI1)
T1 construct: made in house; host or cells: E. coli BL21(pLysS)
T1 sequence (Q96RI1 193-472 isoform Q96RI1-2 limits assumed): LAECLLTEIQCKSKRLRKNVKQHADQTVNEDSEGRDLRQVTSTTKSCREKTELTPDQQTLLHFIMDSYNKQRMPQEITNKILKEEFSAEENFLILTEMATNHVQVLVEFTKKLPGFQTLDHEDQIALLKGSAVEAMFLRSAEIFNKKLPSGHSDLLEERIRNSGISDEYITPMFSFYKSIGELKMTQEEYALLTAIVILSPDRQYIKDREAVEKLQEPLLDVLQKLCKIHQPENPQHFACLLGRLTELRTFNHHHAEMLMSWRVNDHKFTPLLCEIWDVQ
Assay: Radioligand binding assay (scintillation proximity, radioligand displacement)
Conditions: GST-FXR LBD on SPA beads, 20 nM radioligand, test compound 6×10^−9 M to 2.5×10^−5 M
Procedure: The following tests were carried out in order to determine the activity of the compounds of formula (I). Background information on the binding assay can be found in: Nichols J S et al. “Development of a scintillation proximity assay for peroxisome proliferator-activated receptor gamma ligand binding domain”, (1998) Anal. Biochem. 257: 112-119.
Bacterial and mammalian expression vectors were constructed to produce glutathione-s-transferase (GST) and Gal4 DNA binding domain (GAL) proteins fused to the ligand binding domain (LBD) of human FXR (aa 193-473). To accomplish this, the portions of the sequences encoding the FXR LBD were amplified by polymerase chain reaction (PCR) from a full-length clone by PCR and then subcloned into the plasmid vectors. The final clone was verified by DNA sequence analysis.
The induction, expression, and subsequent purification of GST-LBD fusion protein was performed in E. coli strain BL21(pLysS) cells by standard methods (Current Protocols in Molecular Biology, Wiley Press, ed. Ausubel et al.).
Radioligand Binding Assay
Binding of test substances to the FXR ligand binding domain was assessed in a radioligand displacement assay. The assay was performed in a buffer consisting of 50 mM Hepes, pH 7.4, 10 mM NaCl, 5 mM MgCl2, 0.01% CHAPS. For each reaction well in a 96-well plate, 40 nM of GST-FXR LBD fusion protein was bound to 10 μg glutathione ytrium silicate SPA beads (PharmaciaAmersham) in a final volume of 50 μl by shaking. A radioligand (e.g., 20 nM of 2,N-dicyclohexyl-2-[2-(2,4 dimethoxy-phenyl)-benzoimidazol-1-yl]-acetamide) and test compounds were added, and scintillation proximity counting was performed. All binding assays were performed in 96-well plates and the amount of bound ligand was measured on a Packard TopCount using OptiPlates (Packard). Dose response curves were performed within a range of test compound concentrations from 6×10^−9 M to 2.5×10^−5 M and IC50 values were calculated.

| Molecule | IC50 [nM] |
| --- | --- |
| CO[C@H](c1ccccc1)c1nc2cc(F)c(F)cc2n1[C@H](C(=O)Nc1ccc(C(=O)O)cc1Cl)C1CCCCC1 (single isomer, unassigned) [Example 8B] | 60 |
| 6-{(S)-2-Cyclohexyl-2-[5,6-difluoro-2-((S)-methoxy-phenyl-methyl)-benzoimidazol-1-yl]-acetylamino}-nicotinic acid [Example 10B] | 100 |
| CO[C@@H](c1ccccc1)c1nc2cc(F)c(F)cc2n1[C@H](C(=O)Nc1ccc(C(=O)O)cc1F)C1CCCCC1 (single isomer, unassigned) [Example 3B] | 400 |
| CO[C@@H](c1ccccc1)c1nc2cc(F)c(F)cc2n1[C@@H](C(=O)Nc1ccc(C(=O)O)cc1Cl)C1CCCCC1 (single isomer, unassigned) [Example 7A] | 300 |
| CO[C@H](c1ccccc1)c1nc2cc(F)c(F)cc2n1[C@H](C(=O)Nc1ccc(C(=O)O)cc1F)C1CCCCC1 (single isomer, unassigned) [Example 4B] | 30 |
| CO[C@H](c1ccccc1)c1nc2cc(F)c(F)cc2n1[C@@H](C(=O)Nc1ccc(C(=O)O)cc1F)C1CCCCC1 (single isomer, unassigned) [Example 4A] | 500 |
| CO[C@@H](c1ccccc1)c1nc2cc(F)c(F)cc2n1[C@@H](C(=O)Nc1ccc(C(=O)O)cc1F)C1CCCCC1 (single isomer, unassigned) [Example 3A] | 500 |
| CO[C@H](c1ccccc1)c1nc2cc(F)ccc2n1C(C(=O)N[C@H]1CC[C@H](CC(=O)O)CC1)C1CCCCC1 (stereo partly drawn) [Example 11, (trans-4-{2-Cyclohexyl-2-[5-fluoro-2-((R)-methoxy-phenyl-methyl)-benzoimidazol-1-yl]-acetylamino}-cyclohexyl)-acetic acid] | 21000 |
| 6-{(R)-2-Cyclohexyl-2-[5,6-difluoro-2-((S)-methoxy-phenyl-methyl)-benzoimidazol-1-yl]-acetylamino}-nicotinic acid [Example 10A] | 200 |
| CO[C@H](c1ccccc1)c1nc2cc(F)ccc2n1C(C(=O)N[C@H]1CC[C@H](C(=O)O)CC1)C1CCCCC1 (stereo partly drawn) [Example 12, trans-4-{2-Cyclohexyl-2-[5-fluoro-2-((R)-methoxy-phenyl-methyl)-benzoimidazol-1-yl]-acetylamino}-cyclohexanecarboxylic acid] | 6800 |
| CO[C@@H](c1ccccc1)c1nc2cc(F)c(F)cc2n1[C@@H](C(=O)Nc1ccc(C(=O)O)cc1C)C1CCCCC1 (single isomer, unassigned) [Example 5A] | 300 |

Now from value to molecule:

| IC50 [nM] | Molecule |
| --- | --- |
| 2600 | CO[C@@H](c1ccccc1)c1nc2cc(F)c(F)cc2n1[C@H](C(=O)Nc1ccc(C(=O)O)cn1)C1CCCCC1 (single isomer, unassigned) [Example 9B] |
| 20 | CO[C@@H](c1ccccc1)c1nc2cc(F)c(F)cc2n1[C@H](C(=O)Nc1ccc(C(=O)O)cc1Cl)C1CCCCC1 (single isomer, unassigned) [Example 7B] |
| 1600 | CO[C@H](c1ccccc1)c1nc2cc(F)c(F)cc2n1[C@@H](C(=O)Nc1ccc(C(=O)O)cc1)C1CCCCC1 (single isomer, unassigned) [Example 2A] |
| 1000 | CO[C@@H](c1ccccc1)c1nc2cc(F)c(F)cc2n1[C@H](C(=O)Nc1ccc(C(=O)O)cc1)C1CCCCC1 (single isomer, unassigned) [Example 1B] |
| 400 | CO[C@H](c1ccccc1)c1nc2cc(F)c(F)cc2n1[C@@H](C(=O)Nc1ccc(C(=O)O)cc1Cl)C1CCCCC1 (single isomer, unassigned) [Example 8A] |
| 60 | CO[C@H](c1ccccc1)c1nc2cc(F)c(F)cc2n1[C@H](C(=O)Nc1ccc(C(=O)O)cc1C)C1CCCCC1 (single isomer, unassigned) [Example 6B] |
| 1700 | CO[C@@H](c1ccccc1)c1nc2cc(F)c(F)cc2n1[C@@H](C(=O)Nc1ccc(C(=O)O)cn1)C1CCCCC1 (single isomer, unassigned) [Example 9A] |
| 5000 | CO[C@H](c1ccccc1)c1nc2cc(F)c(F)cc2n1[C@@H](C(=O)Nc1ccc(C(=O)O)cc1C)C1CCCCC1 (single isomer, unassigned) [Example 6A] |
| 1100 | CO[C@@H](c1ccccc1)c1nc2cc(F)c(F)cc2n1[C@H](C(=O)Nc1ccc(C(=O)O)cc1C)C1CCCCC1 (single isomer, unassigned) [Example 5B] |
| 1900 | CO[C@@H](c1ccccc1)c1nc2cc(F)c(F)cc2n1[C@@H](C(=O)Nc1ccc(C(=O)O)cc1)C1CCCCC1 (single isomer, unassigned) [Example 1A] |
| 300 | CO[C@H](c1ccccc1)c1nc2cc(F)c(F)cc2n1[C@H](C(=O)Nc1ccc(C(=O)O)cc1)C1CCCCC1 (single isomer, unassigned) [Example 2B] |
